Article PMC11063903, “Engineering a human P2X2 receptor with altered ligand selectivity in yeast” (The Journal of Biological Chemistry, 2024)
Residue numbers refer to the chain shown, from its start.

What was measured:
P2X2 F301W = biological target: T1, P2X2 F301W (Homo sapiens, UniProt Q9UBL9, F301W); test: Fast GCaMP-mScarletI assay in yeast, P2X2 F301W; type: cell-based; settings: for Bottom, best fit value / Hillslope, best fit value / Top, best fit value: four-parameter logistic fit of ΔF/ΔT; for Bottom, best fit value / Hillslope, best fit value / Top, best fit value / EC50: n = 3; for EC50: four-parameter logistic fit, unit inferred, unit M, read-out: EC50, best fit value
T1 construct: expressed in transfected cells; host or cells: S. cerevisiae BY4741 background
T1 sequence (Q9UBL9 1-471 F301W): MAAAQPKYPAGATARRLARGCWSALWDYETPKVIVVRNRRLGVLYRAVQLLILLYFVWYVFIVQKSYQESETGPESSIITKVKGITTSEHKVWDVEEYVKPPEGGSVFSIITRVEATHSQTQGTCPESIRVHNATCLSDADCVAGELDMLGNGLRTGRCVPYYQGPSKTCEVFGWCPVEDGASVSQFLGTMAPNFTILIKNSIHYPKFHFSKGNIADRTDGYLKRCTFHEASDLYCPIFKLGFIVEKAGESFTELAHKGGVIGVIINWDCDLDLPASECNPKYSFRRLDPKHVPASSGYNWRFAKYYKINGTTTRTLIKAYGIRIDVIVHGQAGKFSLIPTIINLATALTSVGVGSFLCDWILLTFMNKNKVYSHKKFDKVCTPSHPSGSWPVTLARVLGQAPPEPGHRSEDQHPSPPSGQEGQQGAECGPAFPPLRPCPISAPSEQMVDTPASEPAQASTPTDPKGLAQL
Description: (§1) Figure 4 Unnatural-ligand gating in LBD libraries.A, WT P2X2 was tested with 1 mM ATP, 500 μM AMP-PNP, and compared to ATP with the broken receptor (K81C K83C) control with 1 mM ATP in the fast GCaMP-mScarletI assay (n = 3). […] B, heat map summarizing AMP-PNP signaling (ΔF/ΔT, fast GCaMP-mScarletI assay) in the site-saturation libraries (n = 2–3). All values are normalized to WT P2X2 with saturating amounts of AMP-PNP (500 μM) and therefore represent low signal (ΔF/ΔT) compared to the ATP ligand. C, F301W, F303Y, and A304W were combinatorially combined and tested against the WT, K81C K83C broken P2X2, and the single mutant clones with both ATP (1 mM, black) and AMP-PNP (500 μM, pink). […] Values here represent signal onset and are not normalized to a positive control (n = 2–5). D–K, dose response of each P2X variant with both ATP (black) and AMP-PNP (pink) in the fast GCaMP-mScarletI assay (n = 3). Statistics were performed via one-way ANOVA with Dunnett’s multiple comparisons with to the “broken” K81C K83C negative control. ∗ represents a p value ≤0.05, ∗∗ is p ≤ 0.01, and ∗∗∗ is p ≤ 0.001.
(§2) Given that the yeast-based screen seemed to recapitulate important structural and functional features of human ion channel function, we hypothesized that it might be possible to engineer new P2X2 functionalities in yeast, including new ligand specificity. […] We screened our 133-member library in the presence of 500 μM AMP-PNP (Fig. S7). While the AMP-PNP signal was uniformly low, three substitutions (F301W, F303Y, and A304W) increased signaling 2.5 to 2.8 times relative to the negative control receptor (Figs. 4B, and S7, D, F, and G). To gain a more complete view of the properties of these mutants, dose–response curves were generated with ATP and AMP-PNP (Fig. 4, D–G, and Table S2).
(§3) GCaMP assays were performed as follows. P2X2 GCaMP strains were designed with a bi-cistronic reporter, in which the GCaMP protein was followed by a 2A peptide and a mScarletI reporter ([53]). The co-translated mScarletI was designed to act as a control for plasmid loss, GCaMP breakage via nonsense mutation, and contamination. […] P2X2-GCaMP strains were cultured and induced as previously described. Samples were induced for 24 h to allow for the accumulation of the mature GCaMP protein. Cells were washed three times in 0.1 M MES/Tris buffer and resuspended with MES/Tris with supplemental calcium. Cells were loaded onto a black, clear bottom microplate and imaged on a FlexStation3 plate reader. Samples were imaged in “flex” mode. Samples were imaged for 48 s at an interval of 1.6 s. Fluorescence was measured with an excitation at 485 nm, and emission 525 nm. At the 21 s mark, 100 μl ligand solution was transferred to the cells. For strains with mScarlet, fluorescence was read with excitation 570 nm/emission 610 nm. Slopes were calculated from the last 6 points of measurement and were normalized to the positive control samples. Any replicate in which the mScarlet value was measured to be over 2 standard deviations less than the mean for that set was discarded from further analysis.
(§4) For multiple comparisons in the site-saturation screening data, One-way ANOVA with Dunnett’s multiple comparisons test was performed where every sample was compared to the “broken” negative control. Significance was plotted where ∗ represents a p value ≤0.05, ∗∗ is p ≤0.01, and ∗∗∗ is p ≤0.001. Dose–response curves were fit with nonlinear regression software using a four-parameter logistic curve. All statistics were calculated and plotted in Graphpad Prism software.

P2X2 F303Y = biological target: T2, P2X2 F303Y (Homo sapiens, UniProt Q9UBL9, F303Y); test: Fast GCaMP-mScarletI assay in yeast, P2X2 F303Y; type: cell-based; settings: for Bottom, best fit value / Hillslope, best fit value / Top, best fit value: four-parameter logistic fit of ΔF/ΔT; for Bottom, best fit value / Hillslope, best fit value / Top, best fit value / EC50: n = 3; for EC50: four-parameter logistic fit, unit inferred, unit M, read-out: EC50, best fit value
T2 construct: expressed in transfected cells; host or cells: S. cerevisiae BY4741 background
T2 sequence (Q9UBL9 1-471 F303Y): T1 sequence (Q9UBL9 1-471 F301W) with W301F, F303Y
Description: as §1, §2, §3, §4

[1] = AMP-PNP dose-response, Fig. 4D-G, Table S2

SMILES	activity compared to the wild-type (P2X2 F301W; [1]) [fold]	Bottom, best fit value (P2X2 F301W)	Hillslope, best fit value (P2X2 F301W)	Top, best fit value (P2X2 F301W)	EC50 (P2X2 F301W) [µM]	activity compared to the wild-type (P2X2 F303Y; [1]) [fold]	Bottom, best fit value (P2X2 F303Y)	Hillslope, best fit value (P2X2 F303Y)	Top, best fit value (P2X2 F303Y)	EC50 (P2X2 F303Y) [µM]
Nc1ncnc2c1ncn2[C@@H]1O[C@H](COP(=O)(O)OP(=O)(O)NP(=O)(O)O)[C@@H](O)[C@H]1O [AMP-PNP]	5.28	0.4523	2.135	5.973	214	1.89	0.2603	0.8857	2.141	328
Nc1ncnc2c1ncn2[C@@H]1O[C@H](COP(=O)(O)OP(=O)(O)OP(=O)(O)O)[C@@H](O)[C@H]1O [ATP]	–	-0.0044	0.94	37.70	5.04	–	0.80	2.18	68.07	3.6
